Measurements as given in patent publication US20180228145A1, “ABSORBENT BINDER COMPOSITION” (Kimberly-Clark Worldwide, Inc., priority 2015, published 2018).

System: E. coli
Experiment: Kirby-Bauer Zone of Inhibition test (AATCC 147-1998), impregnated test wafers on agar plate
Assay type: cell-based
Conditions: 50 ml FAB, 1.1 g calcium chloride plus antimicrobial agent; impregnated wafer
Description: A variety of absorbent binder compositions were formulated to contain the FAB superabsorbent polymer material, calcium chloride, and an antimicrobial agent. The absorbent binder composition contained 50 ml FAB and 1.1 g (10 mmole) calcium chloride, and the antimicrobial agent as noted in Table 2 below. The absorbent binder compositions were then analyzed according to the Kirby-Bauer Antibiotic test method which is a Zone of Inhibition test method (This test method is also known by the American Association of Textile Chemists and Colorists (AATCC) as test method 147-1998.). In this example, the antimicrobial agents incorporated into an absorbent binder composition were Benzalkonium chloride, hydrogen peroxide, and a combination of the Benzalkonium chloride and hydrogen peroxide. According to the test method, the absorbent binder compositions were then brought into contact with test wafers to impregnate the test wafers with the absorbent binder compositions. The absorbent binder composition-impregnated test wafers were then brought into contact with various pathogenic bacteria on an agar plate and the agar plates were then left to incubate according to the test method. Following incubation, the distance between the wafers and the growth of bacteria was measured.

CN[C@H](CC(C)C)C(=O)N[C@H]1C(=O)N[C@@H](CC(N)=O)C(=O)N[C@H]2C(=O)N[C@H]3C(=O)N[C@H](C(=O)N[C@H](C(=O)O)c4cc(O)cc(O)c4-c4cc3ccc4O)[C@H](O)c3ccc(c(Cl)c3)Oc3cc2cc(c3O[C@@H]2O[C@H](CO)[C@@H](O)[C@H](O)[C@H]2O[C@H]2C[C@](C)(N)[C@H](O)[C@H](C)O2)Oc2ccc(cc2Cl)[C@H]1O [vancomycin wafer, vancomycin]
E. coli Zone of Inhibition: 1.9 cm
